Several values for one entry are separate records, joined by “and”; a condition that tells them apart may be missing. Identical values can stand only once.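 Test compounds were applied to cells in 96-well plates for 48 hours at 5 doses. GI50 = concentration required for 50% inhibition of growth. The concentration for full growth arrest is given as TGI.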
Columns and labels:
Assay in all cases: growth of human tumour cells (NCI), 48 h
MDA-MB-231 breast = system: MDA-MB-231 breast
LOX IMVI melanoma = system: LOX IMVI melanoma
NCI/ADR-RES ovarian = system: NCI/ADR-RES ovarian
HT29 colon = system: HT29 colon
U251 CNS = system: U251 CNS
SR leukemia = system: SR leukemia
786-0 renal = system: 786-0 renal
T-47D breast = system: T-47D breast
OVCAR-5 ovarian = system: OVCAR-5 ovarian
MOLT-4 leukemia = system: MOLT-4 leukemia

SMILES	GI50 (MDA-MB-231 breast)	TGI (MDA-MB-231 breast) [µM]	GI50 (LOX IMVI melanoma)	TGI (LOX IMVI melanoma) [µM]	GI50 (NCI/ADR-RES ovarian)	TGI (NCI/ADR-RES ovarian) [µM]	GI50 (HT29 colon)	TGI (HT29 colon)	GI50 (U251 CNS)	TGI (U251 CNS) [µM]	GI50 (SR leukemia) [µM]	TGI (SR leukemia) [µM]	GI50 (786-0 renal)	TGI (786-0 renal) [µM]	GI50 (T-47D breast) [µM]	TGI (T-47D breast) [µM]	GI50 (OVCAR-5 ovarian) [µM]	TGI (OVCAR-5 ovarian) [µM]	GI50 (MOLT-4 leukemia)	TGI (MOLT-4 leukemia) [µM]
Cc1cnc(C(=O)NNc2nc3sc4c(c3c(=O)[nH]2)C(C)CCC4)cn1 (stereo not drawn)	1.85 µM	18.1	0.708 µM	6.37	1.78 µM	10.4	1.61 µM	> 100 µM	0.603 µM	> 100	0.484	29.2	1.56 µM	13.5	2.75	> 100	2.1	15.8	0.676 µM	13.4
CC[C@H](C)[C@H](NC(=O)[C@H]1CCCCN1C)C(=O)N(C)[C@H](C[C@@H](OC(C)=O)c1nc(C(=O)NC23CC(C(=O)OC)(C2)C3)cs1)C(C)C	0.00163 µM and 0.00363 µM	> 32.5	0.00054 µM and 0.00325 µM	> 32.5	0.0522 µM and 0.0479 µM	0.371	0.000433 µM and 0.00325 µM	0.0103 µM and 0.011 µM	0.00083 µM and 0.00325 µM	> 32.5	–	> 32.5	0.00064 µM and 0.00325 µM	> 32.5	0.000499	–	–	> 32.5	0.000696 µM and 0.00325 µM	> 32.5
CCO/C=C1\SC(=S)N(c2ccc(OCC)cc2)C1=O	–	> 100	–	> 100	–	> 100	–	> 100 µM	–	> 100	–	> 100	–	> 100	–	> 100	–	> 100	–	> 100
CCSCC1CC(O)(c2ccccc2)C(c2ccccc2)C(c2ccc(F)cc2)O1 (stereo not drawn)	2.58 µM	8.3	1.61 µM	3	1.89 µM	6.67	1.95 µM	6.21 µM	1.75 µM	3.91	1.98	5.85	2.19 µM	5.08	1.56	4.8	2.08	4.91	1.61 µM	4.91
OCCCCC#Cc1ccccc1C#Cc1cccc(C(F)(F)F)c1	18.3 µM	33.4	17.5 µM	31.8	15.5 µM	31.1	10.5 µM	23.4 µM	17.2 µM	31.6	18.3	> 100	11.1 µM	34	22	44.5	17.5	37.2	21.8 µM	59.9
Cc1noc(NC(=O)Nc2ccccc2F)c1C#N	–	> 33.5	–	> 100	–	> 100	–	> 37.7 µM	–	> 44.6	–	> 100	–	> 47.1	–	> 77.4	–	> 45.8	–	> 100
CCCCCC/C=C\CCCCCCCCC(=O)c1cccc(OC)c1OC	–	> 100	–	32.9	–	> 100	–	> 100 µM	–	> 100	–	> 100	–	> 100	–	> 100	–	> 100	–	> 100
CCCCCCCCCCCC[C@@H](O)[C@H]1CC[C@H]([C@H](O)CC[C@H](O)[C@@H]2CC[C@@H](CCCCCCCC3=C[C@H](C)OC3=O)O2)O1	–	> 50	1.13 µM	–	2.12 µM	> 50	–	> 50 µM	8.63 µM	> 50	> 50	> 50	6.4 µM	> 50	4.45	> 50	–	> 50	2.55 µM	> 50

— PubChem BioAssay (NCI)
